Key:
salivary alpha-amylase = test: Timed mathematical and word stress test in panelists exposed to fragrance compound; salivary alpha-amylase before vs after stress; assay type: in vivo, human; details: panelists' saliva, before vs immediately after stress test; single fragrance compound in DPG solvent; DPG control 51.9%
Protocol: (§1) Stress was induced in each panelist using a timed mathematical and word test, which was administered to panelists in a small group competition setting to induce stress in each of the panelists. At set time intervals during the test, each panelist was exposed to either a single fragrance compound or to a DPG control.
(§2) Saliva was collected for each panelist before and immediately after the stress test. Saliva samples were assayed for salivary alpha-amylase activity and salivary cortisol levels using a commercially available assay kit (e.g., Salimetrics).
(§3) Table 1-A summarizes the percent change (i.e., before stress versus after stress) in the salivary alpha-amylase levels of panelists exposed to fragrance compounds of the present disclosure during the stress test. In addition, the table illustrates the statistical significance of the change in alpha-amylase levels (i.e., p-value or probability value, P) of each of the fragrance compounds as compared to DPG, representing the change in the control (i.e., just DPG without a fragrance compound before stress and after stress).

salivary cortisol = test: Timed mathematical and word stress test in panelists exposed to fragrance compound; salivary cortisol before vs after stress; assay type: in vivo, human; details: panelists' saliva, before vs immediately after stress test; single fragrance compound in DPG solvent; DPG control 10.8%
Protocol: as §1, §2
as §3, with “Table 1-B” for “Table 1-A”, “salivary cortisol” for “salivary alpha-amylase”, “in salivary cortisol” for “in alpha-amylase”

Row | Compound | % Change in Alpha-amylase (i.e., before versus after stress) (salivary alpha-amylase) [%] | % Change in Cortisol (i.e., before versus after stress) (salivary cortisol) [%]
1 | (1,7,7-trimethylbicyclo[2.2.1]hept-2-yl)-cyclohexanol | 3.8 | 1.0
2 | CC12CCC(CC1=O)C2(C)C (stereo not shown) [Camphor] | −11.6 | −2.2
3 | CC1(O)CCC2C(=CCCC2(C)C)C1 (stereo not shown) [2,5,5-trimethyl-1,3,4,4a,6,7-hexahydronaphthalen-2-ol] | 5.1 | 30.0
4 | CC1(C)CCC[C@]2(C)[C@H]3CCO[C@]3(C)CC[C@@H]12 [Ambroxide] | −12.2 | 1.1
5 | C=CC(C)CCC=C(C)C (stereo not shown) [Dihyrdomyrcene] | 23.6 | −8.1
6 | CC(C)=CCCC(C)=CC=O [Citral] | 7.5 | −2.8
7 | CC(C)=CCCC(C)CC=O (stereo not shown) [Citronellal] | 4.9 | 16.8
8 | CC(=O)O[C@@H]1C[C@@H]2CC[C@@]1(C)C2(C)C [Bornyl Acetate, L] | 27.1 | −13.0
9 | C=CC(=C)CCCC(C)(C)OC(C)=O [Myrcenyl Acetate] | 15.8 | −6.9
10 | CC(=O)OC1CCCCC1C(C)(C)C (stereo not shown) [2-tert-butylcyclohexyl acetate] | −4.3 | −14.2
11 | CC(C)(C)C1CCC(=O)C(C(C)(C)C)C1 (stereo not shown) [2,4-di(tert-butyl)-cyclohexan-1-one] | 10.9 | 8.3
12 | C=CC(C)CCCC(C)(C)OC(C)=O (stereo not shown) [Dihydromyrcenyl Acetate] | −3.9 | −13.3
13 | CC(C)=CCCC(C)CCO (stereo not shown) [Citronellol] | 1.2 | 3.4
14 | CC(=O)C1(C)CC2=C(CCCC2(C)C)CC1C (stereo not shown) [1-(1,2,3,4,5,6,7,8-octahydro-2,3,8,8,-tetramethyl-2-naphthyl)ethan-1-one] | −2.5 | −11.9
15 | CC(C=O)Cc1ccc(C(C)C)cc1 (stereo not shown) [3-(4-isopropylphenyl)-2-methylpropanal] | 4.8 | 17.73
16 | CC12CCC(CC1)C(C)(C)O2 [Eucalyptol] | −11.1 | −12.87
17 | COC(=O)OC1CCC=CCCC1 (stereo not shown) [1-cyclooct-4-enyl methyl carbonate] | 15.2 | 3.5

Reference: patent publication US11384312B2, “Fragrance compositions and methods of use thereof” (TAKASAGO INTERNATIONAL CORPORATION, priority 2016, dated 2022)
